Here are results for 8 compounds from patent US20110207609A1, “Piperazine Compounds With Herbicidal Effect” (BASF SE, priority 2008, published 2011).

One test deals with SETVI. The test can be described thus: greenhouse test, pre-emergence treatment. In kind it is in vivo, Setaria viridis. The following applies: 1.0 kg/ha, scale 0 to 100. The source says: (§1) The culture containers used were plastic flowerpots containing loamy sand with approximately 5.8% of humus as the substrate. The seeds of the test plants were sown separately for each species.
(§2) For the pre-emergence treatment, the active compounds, which had been suspended or emulsified in water, were applied directly after sowing by means of finely distributing nozzles. The containers were irrigated gently to promote germination and growth and subsequently covered with transparent plastic hoods until the plants had rooted. This cover caused uniform germination of the test plants, unless this has been impaired by the active compounds.
(§3) Depending on the species, the plants were kept at 10-25° C. or 20-35° C. The test period extended over 1 to 4 weeks. During this time, the plants were tended, and their response to the individual treatments was evaluated.
(§4) Evaluation was carried out using a scale from 0 to 100. 100 means no emergence of the plants, or complete destruction of at least the aerial moieties, and 0 means no damage, or normal course of growth. A good herbicidal activity is given at values of at least 70 and a very good herbicidal activity is given at values of at least 85.

The next test relates to CHEAL. As to the kind of experiment: greenhouse test, post-emergence treatment. The class given is in vivo, Chenopodium album. The following applies: 1.0 kg/ha, scale 0 to 100.
From the text: as §1
(§5) For the post-emergence treatment, the test plants were first grown to a height of 1.5 to 15 cm, depending on the plant habit, and then treated with the active compounds which had been suspended or emulsified in water. For this purpose, the test plants were either sown directly and grown in the same containers, or they were first grown separately as seedlings and transplanted into the test containers a few days prior to treatment.
as §3, §4

The next test deals with APESV. As to the kind of experiment: greenhouse test, pre-emergence treatment. In kind it is in vivo, Apera spica-venti. The procedure: as §1
(§6) The containers were irrigated gently to promote germination and growth and subsequently covered with transparent plastic hoods until the plants had rooted.
as §3, §4

Test [1] has as its system MATIN. As to the kind of experiment: greenhouse test, pre-emergence treatment. In kind it is in vivo, Matricaria inodora. The conditions noted are these: 2.0 kg/ha, scale 0 to 100.
From the text: as §1, §2, §3, §4

In a further test the test system is AGSST. The test can be described thus: greenhouse test, post-emergence treatment. The class given is in vivo, Agrostis alba. The conditions noted are these: 2.0 kg/ha, scale 0 to 100.
From the text: as §1, §5, §3, §4

For test [2], the system named is MATIN. The test can be described thus: greenhouse test, post-emergence treatment. The class given is in vivo, Matricaria inodora. The following applies: 2.0 kg/ha, scale 0 to 100.
From the text: as §1, §5, §3, §4

The test system of the next test is SETFA. As to the kind of experiment: greenhouse test, pre-emergence treatment. The class given is in vivo, Setaria faberi. The following applies: comparative experiment, 0.5 kg/ha. The procedure: as §1, §6, §3, §4
Another test deals with AMARE. The test can be described thus: greenhouse test, post-emergence treatment. The following applies: 0.5 kg/ha, scale 0 to 100. The class given is in vivo, Amaranthus retroflexus.
From the text: as §1, §5, §3, §4

In a further test the test system is GALAP. The test can be described thus: greenhouse test, post-emergence treatment. The conditions noted are these: 0.5 kg/ha, scale 0 to 100. The class given is in vivo, Galium aparine.
From the text: as §1, §5, §3, §4

The subject of the next test is ECHCG. As to the kind of experiment: greenhouse test, post-emergence treatment. In kind it is in vivo, Echinochloa crus-galli. The conditions noted are these: 1.0 kg/ha, scale 0 to 100.
From the text: as §1, §5, §3, §4

[3] abbreviates: comparative experiment, 0.5 kg/ha.

As for `Cc1nn(C)c(Cl)c1C=C1C(=O)N(C)C(C)(Cc2ccccc2)C(=O)N1C` (racemic) [I-15], the herbicidal activity entry in the test with SETVI and in the test with CHEAL was “very good (a very good herbicidal activity is given at values of at least 85)” each time.

In the case of `CN1C(=O)C(C)(Cc2ccccc2)N(C)C(=O)C1=Cc1cnn2cccnc12` (racemic) [I-61], the herbicidal activity result in the test with APESV (1.0 kg/ha, scale 0 to 100) is “good (A good herbicidal activity is given at values of at least 70)”.

With `CN1C(=O)C(C)(Cc2ccccc2)N(C)C(=O)C1=Cc1occc1Br` (racemic) [I-11], the herbicidal activity entry in the test with MATIN [1], in the test on AGSST and with MATIN [2] was “very good (a very good herbicidal activity is given at values of at least 85)” each time.

`CN1C(=O)C(C)(Cc2ccccc2)N(C)C(=O)C1Cc1cscc1C(F)(F)F` (centres unmarked) [II-21]: the herbicidal activity came to 95% in the test on SETFA and 98% in the test with APESV (setting [3]).

As to `Cc1ncn(C)c1C=C1C(=O)N(C)C(C)(Cc2ccccc2)C(=O)N1C` (racemic) [I-38], the results for the herbicidal activity result in the test on AMARE and in the test on GALAP were “good (A good herbicidal activity is given at values of at least 70)” and “very good (a very good herbicidal activity is given at values of at least 85)”, respectively.

With `CN1C(=O)C(=Cc2cn(C)c3cccc([N+](=O)[O-])c23)NC(=O)C1(C)Cc1ccccc1` (racemic) [I-18], the herbicidal activity entry in the test with ECHCG is on record as “good (A good herbicidal activity is given at values of at least 70)”.

On to `CN1C(=O)C(Cc2cscc2C(F)(F)F)N(C)C(=O)C1Cc1ccccc1` (centres unmarked) [Ex. I.236.1, reference compound], for which the herbicidal activity with APESV (setting [3]) is 20%.

Regarding `CN1C(=O)C(C)(Cc2ccccc2)N(C)C(=O)C1=Cc1cc(Cl)sc1Cl` (racemic) [I-56], the herbicidal activity with SETFA and in the test with APESV (setting [3]) was 80% each time.
